Experimental findings from ChEMBL document CHEMBL1201862, “PubChem BioAssay data set” (2004) are described below.

Test systems include CAKI-1; BT-549; OVCAR-3; HCT-116; Malme-3M; HT-29; A549; RPMI-8226; MDA-MB-231; HCC 2998; COLO 205; PC-3; NCI-H226; M14; CCRF-CEM; 786-0; MOLT-4; SW-620; SNB-19; SF-295.
Holding throughout (assay): NCI anticancer screen, dose series, 48 h

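Protocol summary: plate cells (96-well), add compound at 5 concentrations, incubate 48 h, interpolate endpoints linearly. GI50 marks 50% less growth.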 Active and inactive are the calls of the source. Rule as the data show it: active = GI50 up to about 1.1 µM and inactive = higher.

For the molecule `C=CCN(c1cc(OCc2ccccc2)c2[nH]cc(C)c2c1)S(C)(=O)=O`, the GI50 was 61.7 µM (inactive) with CAKI-1; > 100 µM (inactive) with BT-549; 25 µM (inactive) with OVCAR-3; 66.4 µM (inactive) with HCT-116; 27.5 µM (inactive) in the experiment with Malme-3M; 60.8 µM (inactive) in the experiment on HT-29. Further, the GI50 in the experiment with A549 was 34.7 µM (inactive); with RPMI-8226, 39.4 µM (inactive); in the experiment on MDA-MB-231 it was 44.6 µM (inactive); with HCC 2998, > 100 µM (inactive); with COLO 205, > 100 µM (inactive); with PC-3 it was 49.4 µM (inactive). Further, the GI50 was 28.7 µM (inactive) in the experiment on NCI-H226; > 100 µM (inactive) with M14; > 100 µM (inactive) in the experiment on CCRF-CEM; 33.8 µM (inactive) in the experiment with 786-0; 33.5 µM (inactive) in the experiment with MOLT-4; > 100 µM (inactive) with SW-620. The GI50 in the experiment with SNB-19 is 57.9 µM (inactive); with SF-295 it was 31.5 µM (inactive).
As for `COC1CC(OC2OC(CO)C(O)C(O)C2O)/C(=C\C#N)C(O)C1OC` (stereo not given), the GI50 in the experiment with CAKI-1, in the experiment with BT-549, in the experiment with OVCAR-3, in the experiment with HCT-116, with Malme-3M and in the experiment on HT-29 was > 100 µM (inactive) in each case. In addition, the GI50 in the experiment on A549, with RPMI-8226, in the experiment with MDA-MB-231, in the experiment on HCC 2998, in the experiment with COLO 205 and with PC-3 was > 100 µM (inactive) each time. Besides, the GI50 in the experiment on NCI-H226, in the experiment on M14, in the experiment with CCRF-CEM, in the experiment with 786-0, with MOLT-4 and with SW-620 was > 100 µM (inactive) throughout. For the same molecule, the GI50 in the experiment with SNB-19 and with SF-295 was > 100 µM (inactive) in each case.
On to `c1ccc2c(c1)ccn1ccc3c4ccccc4nc-3c21`, for which the GI50 in the experiment on CAKI-1 is 0.417 µM (active); with BT-549 it was 1.43 µM (inactive); with OVCAR-3 it was 0.918 µM (active); in the experiment with HCT-116, 0.0935 µM (active); in the experiment on Malme-3M, 0.644 µM (active); in the experiment on HT-29, 0.11 µM (active). Besides, the GI50 in the experiment with A549 was 0.32 µM (active); in the experiment on RPMI-8226, 0.195 µM (active); with MDA-MB-231, 0.322 µM (active); with HCC 2998, 0.191 µM (active); in the experiment with COLO 205 it was 0.222 µM (active); in the experiment on PC-3, 0.384 µM (active). In addition, the GI50 with NCI-H226 is 0.31 µM (active); in the experiment on M14, 0.38 µM (active); in the experiment on CCRF-CEM it was 0.26 µM (active); in the experiment on 786-0, 0.178 µM (active); in the experiment with MOLT-4, 0.0759 µM (active); in the experiment on SW-620, 0.202 µM (active). Moreover, the results for the GI50 in the experiment on SNB-19 and with SF-295 were 0.776 µM (active) and 0.426 µM (active), respectively.
Take `C[N+](C)(C)CC1CCCC(C[N+](C)(C)C)C1=O` (stereo not given): the GI50 in the experiment on CAKI-1 is 0.984 µM (active); in the experiment on BT-549 it was 1.58 µM (inactive); with OVCAR-3 it was 0.703 µM (active); in the experiment with HCT-116, 0.804 µM (active); in the experiment with Malme-3M, 0.212 µM (active); with HT-29 it was 1.3 µM (inactive). Further, the GI50 is 14.8 µM (inactive) with A549; 0.0579 µM (active) with RPMI-8226; 2.01 µM (inactive) in the experiment with MDA-MB-231; 0.513 µM (active) with HCC 2998; 0.374 µM (active) in the experiment with COLO 205; 4.61 µM (inactive) with PC-3. For the same molecule, the GI50 was 15.6 µM (inactive) with NCI-H226; 0.879 µM (active) with M14; 0.1 µM (active) with CCRF-CEM; 0.661 µM (active) in the experiment with 786-0; 0.133 µM (active) in the experiment on MOLT-4; 0.0726 µM (active) in the experiment with SW-620. In addition, the GI50 was 19 µM (inactive) with SNB-19 and 29.7 µM (inactive) in the experiment with SF-295.
In the case of `Nc1nc(SCC(=O)c2ccccc2)nc2nc3c(c(-c4ccccc4)c12)CCCC3`, the GI50 in the experiment on CAKI-1 was 15.3 µM (inactive); with BT-549 it was 40.9 µM (inactive); with OVCAR-3, 22.5 µM (inactive); in the experiment on HCT-116, 30.5 µM (inactive); in the experiment with Malme-3M it was 52.4 µM (inactive); with HT-29, 27.1 µM (inactive). The GI50 in the experiment with A549 was 45.1 µM (inactive); in the experiment on RPMI-8226 it was > 100 µM (inactive); in the experiment with MDA-MB-231 it was 19.1 µM (inactive); with HCC 2998, 33 µM (inactive); in the experiment with COLO 205, > 10 µM (inactive); in the experiment on PC-3 it was > 10 µM (inactive). The GI50 was 18.1 µM (inactive) in the experiment on NCI-H226; 19.2 µM (inactive) in the experiment on M14; 74.8 µM (inactive) in the experiment on CCRF-CEM; 20.6 µM (inactive) with 786-0; > 100 µM (inactive) with MOLT-4; > 10 µM (inactive) in the experiment on SW-620. The figures for the GI50 in the experiment with SNB-19 and with SF-295 were 49.9 µM (inactive) and > 10 µM (inactive), respectively.
